By IC50 is commonly meant the midpoint of a concentration-inhibition curve.

The text below walks through data of US10844062B2, “Pyridine derivative inhibiting RAF kinase and vascular endothelial growth factor receptor, method for preparing same, pharmaceutical composition containing same, and use thereof” (SAMJIN PHARMACEUTICAL CO., LTD., priority 2016, dated 2020).

This assay relates to LS513 KRAS G12V (colon). In words: MTT assay. It counts as cell-based. Conditions: Homo sapiens, LS-513, 72 h, Table 4; 3 days incubation; read-out: MTT assay IC50 KRAS mutant (Colon) LS513 KRAS G12V. How it is done:
MTT assay is frequently used for the purpose of primary screening for the sensitivity of anticancer agents and to examine cytotoxicity. When cancer cells are treated with varying concentrations of any anticancer agent for a predetermined time to induce death of the cells and are then treated with MTT, and when the formation of formazan is measured, the concentration of the anticancer agent, at which about 50% of the cells survive, can be determined. This concentration value is called IC50. IC50 values differ between drugs, and thus can be characteristic of the drugs. Using this method, the effects of anticancer agents against cell proliferation can be quantitatively compared. Thus, in order to measure the cytotoxicity of samples, MTT assay was performed using CellTiter 96 Non-radioactive Cell Proliferation Assay Kit (Promega).
Cells in a cell suspension were counted with a hematocytometer, and then 200 μL of the cell suspension was added to each well of a 96 well plate at a desired concentration (cell amount determined depending on a cell line). After cell seeding, the cells were incubated in a CO2 incubator at 37° C. overnight. After one day of cell stabilization, the cells were treated with desired concentrations of the compounds. The cells were incubated in a CO2 incubator at 37° C. for 3 days, and then the sample was removed, and 200 μL of MTT solution was added to each well. After 2 hours of incubation, the MTT dilution was carefully shaken, and 200 μL of DMSO was added to each well, followed by shaking with a plate shaker for 60 minutes.
Regarding `Cc1ccc(Nc2ncccc2-c2ncnc3[nH]cnc23)cc1NC(=O)c1cccc(C(F)(F)F)c1` [Example 68, N-2-Methyl-5-[3-(9H-Purin-6-Yl)Pyridin-2-Ylamino)Phenyl-3-Trifluoromethylbenzamide], the IC50 turned out to be 6590 nM.
Next, `COc1ccc(Nc2ncccc2-c2ncnc3[nH]cnc23)cc1NC(=O)c1cccc(C(F)(F)F)c1` [Example 69, N-2-Methoxy-5-[3-(9H-Purin-6-Yl)Pyridin-2-Ylamino)Phenyl-3-Trifluoromethylbenzamide]: 7100 nM; `COc1ccc(NC(=O)c2cccc(C(F)(F)F)c2)cc1Nc1ncccc1-c1ncnc2[nH]cnc12` [Example 70, N-4-Methoxy-5-[3-(9H-Purin-6-Yl)Pyridin-2-Ylamino)Phenyl-3-Trifluoromethylbenzamide]: 757 nM.
For the molecule `O=C(Nc1c(F)ccc(Nc2ncccc2-c2ncnc3[nH]cnc23)c1F)c1cccc(C(F)(F)F)c1` [Example 72, N-2,6-Difluoro-3-[3-(9H-Purin-6-Yl)Pyridin-2-Ylamino)Phenyl-3-Trifluoromethylbenzamide], the IC50 was 1270 nM.
Next, `O=C(Nc1cccc(C(F)(F)F)c1)c1cc(Nc2ncccc2-c2ncnc3[nH]cnc23)ccc1F` [Example 73, 2-Fluoro-5-[3-(9H-Purin-6-Yl)Pyridin-2-Ylamino]-N-(3-Trifluoromethylphenyl)Benzamide]: 80 nM; `O=C(Nc1ccc(Cl)c(C(F)(F)F)c1)Nc1cc(Nc2ncccc2-c2ncnc3[nH]cnc23)ccc1F` [Example 74, 1-(4-Chloro-3-Trifluoromethylphenyl)-3-2-Fluoro-5-[3-(9H-Purin-6-Yl)Pyridin-2-Ylamino]Phenylurea]: 68 nM; `O=C(Nc1cccc(C(F)(F)F)c1)Nc1ccc(Nc2ncccc2-c2ncnc3[nH]cnc23)c(F)c1` [Example 75, 1-3-Fluoro-4-[3-(9H-Purin-6-Yl)Pyridin-2-Ylamino]Phenyl-3-(3-Trifluoromethylphenyl)Urea]: above 10000 nM.
As for `O=C(Cc1cccc(C(F)(F)F)c1)Nc1cc(Nc2ncccc2-c2ncnc3[nH]cnc23)ccc1F` [Example 76, N-2-Fluoro-5-[3-(9H-Purin-6-Yl)Pyridin-2-Ylamino]Phenyl-2-(3-Trifluoromethylphenyl)Acetamide], the IC50 worked out at 426 nM.
With `N#CCc1cccc(NC(=O)c2ccc(F)c(Nc3ncccc3-c3ncnc4[nH]cnc34)c2)c1` [Example 77, N-(3-Cyanomethylphenyl)-4-Fluoro-3-[3-(9H-Purin-6-Yl)Pyridin-2-Ylamino]Benzamide], the half-maximal inhibitory concentration (IC50) came to 145000 nM.
For `N#CCc1ccc(C(=O)Nc2ccc(Nc3ncccc3-c3ncnc4[nH]cnc34)c(F)c2)cc1` [Example 78, N-4-[(3-(9H-Purin-6-Yl)Pyridin-2-Yl)Amino]-3-Fluorophenyl-4-(Cyanomethyl)Benzamide], the 50% inhibitory concentration (IC50) stood at 137 nM.
As for `O=C(Nc1ccc(Nc2ncccc2-c2ncnc3[nH]cnc23)cc1)c1cccc(C(F)(F)F)c1` [Example 79, N-4-[3-(9H-Purin-6-Yl)Pyridin-2-Ylamino]Phenyl-3-Trifluoromethylbenzamide], the IC50 is above 10000 nM.
As to `COc1cc(Nc2ncccc2-c2ncnc3[nH]cnc23)ccc1NC(=O)c1cccc(C(F)(F)F)c1` [Example 80, N-2-Methoxy-4-[3-(9H-Purin-6-Yl)Pyridin-2-Ylamino]Phenyl-3-Trifluoromethylbenzamide], the IC50 was above 10000 nM.
In the case of `O=C(Nc1ccc(F)c(Nc2ncccc2-c2ncnc3[nH]cnc23)c1F)N1CCN(c2ccc(F)cc2)C1=O` [Example 81, N-(3-(3-(9H-purin-6-yl)pyridin-2-ylamino)-2,4-difluorophenyl)-3-(4-fluorophenyl)-2-oxoimidazolidine-1-carboxamide] it was 388 nM.
In the case of `CC(C)(C#N)c1cccc(C(=O)Nc2cc(Nc3ncccc3-c3ncnc4[nH]ccc34)c(F)cc2F)c1` [Example 84, N-(5-(3-(7H-Pyrrolo[2,3-d]Pyrimidin-4-Yl)Pyridin-2-Ylamino)-2,4-Diflurophenyl)-3-(2-Cyanopropan-2-Yl)Benzamide] it was 118 nM; in that of `CC(C)(C#N)c1cccc(C(=O)Nc2ccc(F)c(Nc3ncccc3-c3ncnc4[nH]ccc34)c2F)c1` [Example 85, N-(3-(3-(7H-Pyrrolo[2,3-d]Pyrimidin-4-Yl)Pyridin-2-Ylamino)-2,4-Difluorophenyl)-3-(2-Cyanopropan-2-Yl)Benzamide], 676 nM; in that of `CC(C)(C#N)c1cccc(C(=O)Nc2cccc(Nc3ncccc3-c3ncnc4[nH]ccc34)c2F)c1` [Example 86, N-(3-(3-(7H-Pyrrolo[2,3-d]Pyrimidin-4-Yl)Pyridin-2-Ylamino)-2-Fluorophenyl)-3-(2-Cyanopopan-2-Yl)Benzamide], above 10000 nM.
In the case of `O=C(Nc1cc(Nc2ncccc2-c2ncnc3[nH]ccc23)ccc1F)c1cccc(C(F)(F)F)c1` [Example 87, N-2-Fluoro-5-[3-(7H-Pyrrolo[2,3-d]Pyrimidin-4-Yl)Pyridin-2-Ylamino]Phenyl-3-Trifluoromethyl Benzamide] it was 2180 nM.
Regarding `O=C(Nc1cc(Nc2ncccc2-c2ncnc3[nH]ccc23)ccc1F)c1cc(F)cc(C(F)(F)F)c1` [Example 88, 3-Fluoro-N-2-Fluoro-5-[3-(7H-Pyrrolo[2,3-d]Pyrimidin-4-Yl)Pyridin-2-Ylamino]Phenyl-5-Trifluoromethyl Benzamide], the IC50 was 609 nM.
`CC(C)(C#N)c1cccc(C(=O)Nc2cc(Nc3ncccc3-c3ncnc4[nH]ccc34)ccc2F)c1` [Example 91, 3-(2-Cyanopropan-2-Yl)-N-2-Fluoro-5-[3-(7H-Pyrrolo[2,3-d]Pyrimidin-4-Yl)Pyridin-2-Ylamino]Phenyl Benzamide]: the half-maximal inhibitory concentration (IC50) came to 1120 nM.
In the case of `CC(C)(C#N)c1cc(F)cc(C(=O)Nc2cc(Nc3ncccc3-c3ncnc4[nH]ccc34)ccc2F)c1` [Example 92, 3-(2-Cyanopropan-2-Yl)-5-Fluoro-N-2-Fluoro-5-[3-(7H-Pyrrolo[2,3-d]Pyrimidin-4-Yl)Pyridin-2-Ylamino]Phenyl Benzamide] it was 1510 nM; in that of `O=C(Nc1cc(Nc2ncccc2-c2ncnc3[nH]cnc23)ccc1F)c1ccc(F)c(C(F)(F)F)c1` [Example 111, N-5-[(3-(9H-Purin-6-Yl)Pyridin-2-Yl)Amino]-2-Fluorophenyl-4-Fluoro-3-(Trifluoromethyl)Benzamide], 300 nM.
In the case of `CC(C)(C#N)c1cccc(NC(=O)c2cc(Nc3ncccc3-c3ncnc4[nH]cnc34)ccc2F)c1` [Example 112, 5-[3-(9H-Purin-6-Yl)Amino]-N-[3-(2-Cyanopropan-2-Yl)Phenyl]-2-Fluorobenzamide] it was above 10000 nM; in that of `O=C(Nc1cc(Nc2ncccc2-c2ncnc3[nH]cnc23)ccc1F)c1cccc(F)c1` [Example 113, N-5-[(3-(9H-Purin-6-Yl)Pyridin-2-Yl)Amino]-2-Fluorophenyl-3-Fluorobenzamide], 1480 nM; in that of `CC(C)(C#N)c1cc(C(=O)Nc2cc(Nc3ncccc3-c3ncnc4[nH]cnc34)ccc2F)ccc1F` [Example 116, N-5-[(3-(9H-purin-6-yl)pyridin-2-yl)amino]-2-fluoropheny-3-(2-cyanopropan-2-yl)-4-fluorobenzamide], 587 nM.
Regarding `CC(C)(C#N)c1cc(C(=O)Nc2cc(Nc3ncccc3-c3ncnc4[nH]cnc34)ccc2F)ccc1Cl` [Example 117, N-5-[(3-(9H-purin-6-yl)pyridin-2-yl)amino]-2-fluorophenyl-4-chloro-3-(2-cyanopropan-2-yl)benzamide], the IC50 was determined as 868 nM.
